Laboratory results from patent US20230047825A1, “ANTIMICROBIAL PEPTIDES” (priority 2019, published 2023).
Values after ≈ are worked out from the molar mass of the structure shown. Read-outs that look alike come from different tables or passages of the source. Where a SMILES comes first, the peptide text is derived from it.

Tests used:
[1] = tested on: Acinetobacter baumannii AYE; type: cell-based; details: AYE
[2] = tested on: MS Staphylococcus aureus ATCC 9144; type: cell-based; details: MSSA9144
VRE12201 = experiment: Antibacterial activity assay (broth microdilution MIC); type: cell-based, Enterococcus faecalis; details: medium and unit inferred
Text: (§1) Antibacterial activity assay.
The bacterial strains used are as in the above examples. A table of strains is provided below to aid understanding.

Klebsiella pneumoniae M6 = type: cell-based
[3] = tested on: Klebsiella pneumoniae NCTC 13368; type: cell-based; details: KP13368, in µg/mL
[4] = tested on: Escherichia coli NCTC 12923; type: cell-based; details: EC12923
[5] = tested on: Pseudomonas aeruginosa NCTC 13437; experiment: Antibacterial activity assay (broth microdilution MIC); type: cell-based; details: PA13437, in µg/mL
P. aeruginosa RP73 = experiment: as above; type: cell-based, Pseudomonas aeruginosa; details: in µg/mL
Description: as §1
Synergy experiments were performed following a checkerboard protocol.

[6] = tested on: EMR Staphylococcus aureus-15 (EMRSA-15); type: cell-based
[7] = tested on: VS Enterococcus faecalis NCTC 775; experiment: Antibacterial activity assay (broth microdilution MIC); type: cell-based
Calu-3 = experiment: Cytotoxicity assay; type: cell-based; details: value printed in parentheses
A549 = experiment: Cytotoxicity assay; type: cell-based; details: value printed in parentheses
[8] = tested on: VR Enterococcus faecium NCTC 12204; experiment: Antibacterial activity assay (broth microdilution MIC); type: cell-based; details: VRE12204, in µg/mL
[9] = tested on: Pseudomonas aeruginosa PA01; experiment: as above; type: cell-based
[10] = tested on: EMR Staphylococcus aureus-16 (EMRSA-16); type: cell-based; details: EMRSA16
HEK293 = experiment: Cytotoxicity assay (XTT); type: cell-based, human
Description: (§2) Cytotoxicity assay. HeLa and HEK293 cell lines were purchased from ECACC and cultured in Eagle's Minimum Essential Media (EMEM) containing glutamine, supplemented with 10% FBS and 1× non-essential amino acids (NEAA) at 37° C., 10% CO2. Cytotoxicity was measured by incubating starter cultures of cells for 24 hours in a 96 well plate, gently removing the supernatant and replacing it with dilutions of peptides and controls, incubating for a further 24 hours and then staining of the cells with the second generation tetrazolium dye, XTT. […]

human red blood cells = experiment: Haemolysis assay; details: red cells of human, 1 h
Description: Haemolysis assay. Haemolysis was tested by incubating titrations of AMPs in PBS with freshly collected human red blood cells for 1 hour at 37 C. Control wells were treated with 0.1% Triton-X-100 to ensure complete lysis, or PBS-only to represent no lysis. Samples were spun down to remove non-lysed cells and the OD^550 of the supernatant was measured using a Clariostar plate reader. The percentage of haemolysis was calculated as % haemolysis=(AP−AB)/(AC−AB)×100, where AP is the absorbance value for a known peptide concentration, AC is the absorbance of the 0.1% Triton-X-100 control, AB is the absorbance of the PBS control. Data presented are averages and standard error from three biological replicate experiments.
Methods: The natural AMP (termed AMP1) was modified to produce synthetic variants, AMPs 1a, 2a, 2b, 3a and 3b. Minimum inhibitory concentrations (MICs) were determined using the microbroth dilution assay with Mueller Hinton broth (MHB) or RPMI (with 5% FBS) and stability in serum was tested by conducting MICs in MHB containing 10% FBS. Synergy experiments were performed following a checkerboard protocol. Cytotoxicity was tested against HEK293 and HeLa immortalised human cell-lines using the XTT viability stain and by quantifying haemolysis of human red blood cells. Patch clamp analysis was performed using the Port-a-Patch® automated patch-clamp system on DPhPE/DPhPG (model for a Gram-negative plasma membrane) or DPhPG (Gram-positive) model membranes challenged with peptide. The murine lung infection model was performed using the agar bead model with Staphylococcus aureus strain NCTC 13616 (EMRSA-15).

[11] = tested on: Acinetobacter baumannii ATCC 17978; type: cell-based; details: in µg/mL; for MIC, Stability in serum (MH): Ab17978
C. albicans = experiment: MIC on initial panels, fungi; type: cell-based; details: unit inferred
HeLa = experiment: Cytotoxicity assay (XTT); type: cell-based, human; set-up: Toxicity HeLa: unit not given beside the values
Description: as §2

[12] = medium and unit not given, in µg/mL
[13] = untitled table, medium/unit not given, values match RPMI of Table 2, in µg/mL
[14] = untitled table, medium/unit not given, values match RPMI of Table 2
[15] = untitled table, medium/unit inferred, values match RPMI of Table 2

- MIC, Stability in serum (MH) ([1]; No serum): 1 µg/mL (≈ 0.377 µM)
- MIC, Stability in serum (MH) ([1]; Serum (10% fetal bovine serum)): 2 µg/mL (≈ 0.754 µM)
- MIC on initial panels [1, 12]: 1
- MIC [1, 13]: 8-32
- MIC on initial panels ([2]; medium and unit inferred): 4 µg/mL (≈ 1.51 µM)
- MIC [2, 13]: 8
- MIC on initial panels (VRE12201): 128 µg/mL (≈ 48.2 µM)
- MIC, Stability in serum (MH) (Klebsiella pneumoniae M6; No serum): 4 µg/mL (≈ 1.51 µM)
- MIC, Stability in serum (MH) (Klebsiella pneumoniae M6; Serum (10% fetal bovine serum)): 8 µg/mL (≈ 3.01 µM)
- MIC on initial panels (Klebsiella pneumoniae M6; [12]): 4
- MIC (Klebsiella pneumoniae M6; [13]): 32
- MIC, Stability in serum (MH) ([3]; No serum): 8
- MIC, Stability in serum (MH) ([3]; Serum (10% fetal bovine serum)): 8-32
- MIC on initial panels ([3]; medium and unit not given): 8
- MIC [3, 14]: 32
- MIC, Stability in serum (MH) ([4]; No serum): 1 µg/mL (≈ 0.377 µM)
- MIC, Stability in serum (MH) ([4]; Serum (10% fetal bovine serum)): 1 µg/mL (≈ 0.377 µM)
- MIC on initial panels [4, 12]: 1
- MIC [4, 13]: 8
- MIC, Stability in serum (MH) ([5]; No serum): 32
- MIC, Stability in serum (MH) ([5]; Serum (10% fetal bovine serum)): 32
- MIC on initial panels ([5]; medium and unit not given): 32
- MIC [5, 14]: >32
- MIC on initial panels (P. aeruginosa RP73; medium and unit not given): 16-64
- MIC (P. aeruginosa RP73; untitled table, medium/unit not given): 32-64
- MIC, Peptide concentration ([6]; EMR -15 (EMRSA-15)): 8 µg/mL (≈ 3.01 µM)
- MIC on initial panels ([6]; EMRSA15, medium and unit inferred): 32 µg/mL (≈ 12.1 µM)
- MIC ([6]; EMRSA15, untitled table, medium/unit inferred, values match RPMI of Table 2): 8 µg/mL (≈ 3.01 µM)
- MIC, Peptide concentration ([6]; Mueller-Hinton broth): 32 µg/mL (≈ 12.1 µM)
- MIC, Peptide concentration ([7]; Mueller-Hinton broth): 64 (NG) μg/ml
- MIC on initial panels ([7]; VSE775, medium and unit not given, in µg/mL): 64
- MIC on initial panels ([8]; medium and unit not given): 16
- MIC [8, 14]: 32-64
- MIC, Stability in serum (MH) ([9]; No serum, in µg/mL): 4
- MIC, Stability in serum (MH) ([9]; Serum (10% fetal bovine serum), in µg/mL): 16
- MIC on initial panels [9, 12]: 4
- MIC [9, 15]: 32 µg/mL (≈ 12.1 µM)
- MIC on initial panels [10, 12]: 64
- MIC [10, 15]: 32 µg/mL (≈ 12.1 µM)
- MIC on initial panels ([11]; AB17978, medium and unit not given): 1
- MIC ([11]; AB17978, untitled table, medium/unit not given, values match RPMI of Table 2): 16
- MIC, Stability in serum (MH) ([11]; No serum): 1
- MIC, Stability in serum (MH) ([11]; Serum (10% fetal bovine serum)): 2-16
- MIC on initial panels, Fungi (C. albicans): 8 µg/mL (≈ 3.01 µM)
SMILES: CC(C)C[C@@H](NC(=O)[C@@H](Cc1ccc(O)cc1)NC(=O)[C@@H](Cc1c[nH]cn1)NC(=O)[C@H](NC(=O)[C@@H](CC(C)C)NC(=O)[C@@H](C)NC(=O)[C@@H](C)NC(=O)[C@@H](CCCCN)NC(=O)CNC(=O)[C@@H](C)NC(=O)[C@@H](Cc1c[nH]cn1)NC(=O)[C@@H](CCCCN)NC(=O)CNC(=O)[C@@H](C)NC(=O)[C@@H](Cc1c[nH]cn1)NC(=O)[C@@H](C)NC(=O)[C@@H](C)NC(=O)[C@@H](CCCCN)NC(=O)[C@@H](CCCCN)NC(=O)[C@@H](Cc1ccccc1)NC(=O)[C@@H](Cc1ccccc1)NC(=O)[C@@H](CO)NC(=O)CNC(=O)[C@@H](Cc1c[nH]c2ccccc12)NC(=O)CN)[C@H](C)O)C(N)=O [D-pleurocidin-VA] (HELM PEPTIDE1{G.[dW].G.[dS].[dF].[dF].[dK].[dK].[dA].[dA].[dH].[dA].G.[dK].[dH].[dA].G.[dK].[dA].[dA].[dL].[dT].[dH].[dY].[dL].[am]}$$$$V2.0; N-terminus assumed)
- Toxicity Calu-3 (EC50), Peptide concentration (Calu-3): (>250) μg/ml
- Toxicity A549 (EC50), Peptide concentration (A549): (>250) μg/ml
- Toxicity HEK293 (HEK293; unit not given): 217.3 ± 46.5
- Toxicity HEK293 (EC50), Peptide concentration (HEK293; value printed in parentheses): (217.3 ± 46.5) μg/ml
- Toxicity HC50, Peptide concentration (human red blood cells): >>400 μg/ml
- Toxicity HeLa (HeLa; unit not given): 198.2 ± 10.2
- Toxicity HeLa (EC50), Peptide concentration (HeLa; value printed in parentheses): (198.2 ± 10.2) μg/ml
